Test results as given in patent US12435044B2, “Pyridazinone herbicides and pyridazinone intermediates used to prepare a herbicide” (FMC Corporation, priority 2018, dated 2025).

How the values were obtained:
Format in all cases: in vivo
[1] = tested on: monochoria (Monochoria vaginalis); assay: Test F flooded paddy test; conditions: Flood, after 21 d
Text: (§1) Three plastic pots (ca. 16-cm diameter) per rate were partially filled with sterilized Tama silt loam soil comprising a 35:50:15 ratio of sand, silt and clay and 2.6% organic matter. Separate plantings for each of the three pots were as follows. Seeds from the U.S. of monochoria (Monochoria vaginalis), sedge, umbrella (small-flower umbrella sedge, Cyperus difformis) and redstem (purple redstem, Ammannia coccinea), were planted into one 16-cm pot for each rate. Seeds from the U.S. of rice flatsedge (Cyperus iria), sprangletop, Brdd. (bearded sprangletop, Leptochloa fascicularis), one stand of 9 or 10 water seeded rice seedlings (Rice, W. S. Jap, Oryza sativa cv. ‘Japonica-M202’ or Rice, W. S. Ind, ‘Indica’), and two stands of 3 or 4 transplanted rice seedlings (Oryza sativa cv. ‘Japonica-M202’) were planted into one 16-cm pot for each rate. Seeds from the U.S. of barnyardgrass (Echinochloa crus-galli), and late watergrass (Echinochloa oryzicola) were planted into one 16-cm pot for each rate.
(§2) Plantings were sequential so that crop and weed species were at the 2.0 to 2.5-leaf stage at time of treatment.
(§3) Potted plants were grown in a greenhouse with day/night temperature settings of 30/27° C., and supplemental balanced lighting was provided to maintain a 16-hour photoperiod. Test pots were maintained in the greenhouse until test completion.
(§4) At time of treatment, test pots were flooded to 3 cm above the soil surface, treated by application of test compounds directly to the paddy water, and then maintained at that water depth for the duration of the test. Effects of treatments on rice and weeds were visually evaluated by comparison to untreated controls after 21 d. Plant response ratings, summarized in Table F, are based on a scale of 0 to 100 where 0 is no effect and 100 is complete control. A dash (-) response means no test result.

[2] = tested on: transplanted rice seedlings (Oryza sativa cv. ‘Japonica-M202’); assay: Test F flooded paddy test; conditions: Flood, after 21 d
Text: as §1, §2, §3, §4

[3] = tested on: barnyardgrass (Echinochloa crus-galli); assay: Test F flooded paddy test; conditions: Flood, after 21 d
Text: as §1, §2, §3, §4

[4] = tested on: water seeded rice seedlings (Rice, W. S. Jap, Oryza sativa cv. ‘Japonica-M202’ or Rice, W. S. Ind, ‘Indica’); assay: Test F flooded paddy test; conditions: Flood, after 21 d
Text: as §1, §2, §3, §4

[5] = tested on: late watergrass (Echinochloa oryzicola); assay: Test F flooded paddy test; conditions: Flood, after 21 d
Text: as §1, §2, §3, §4

[6] = tested on: panicum, fall (Panicum dichotomiflorum); assay: Test E pre-/postemergence greenhouse test
Text: (§5) Seeds of plant species selected from corn (Zea mays), soybean (Glycine max), velvetleaf (Abutilon theophrasti), lambsquarters (Chenopodium album), poinsettia, wild (Euphorbia heterophylla), pigweed, palmer (Amaranthus palmeri), waterhemp (common waterhemp, Amaranthus rudis), surinam grass (Brachiaria decumbens), crabgrass, large (Digitaria sanguinalis), crabgrass, Brazil (Digitaria horizontalis), panicum, fall (Panicum dichotomiflorum), foxtail, giant (Setaria faberii), foxtail, green (Setaria viridis), goosegrass (Eleusine indica), johnsongrass (Sorghum halepense), ragweed (common ragweed, Ambrosia elatior), barnyardgrass (Echinochloa crus-galli), sandbur (southern sandbur, Cenchrus echinatus), arrowleaf sida (Sida rhombifolia), ryegrass, Italian (Lolium multiflorum), dayflower, VA (Virginia (VA) dayflower, Commelina virginica), field bindweed (Convolvulus arvensis), morningglory (Ipomoea coccinea), horseweed (Conyza canadensis), kochia (Kochia scoparia), nutsedge, yellow (Cyperus esculentus) and hairy beggarticks (Bidenspilosa), were planted into a silt loam soil and treated preemergence with test chemicals formulated in a non-phytotoxic solvent mixture which included a surfactant.
(§6) At the same time, plants selected from these crop and weed species and also waterhemp_RES1, (ALS & Triazine resistant common waterhemp, Amaranthus rudis), and waterhemp_RES2, (ALS & HPPD resistant common waterhemp, Amaranthus rudis) were planted in pots containing Redi-Earth® planting medium (Scotts Company, 14111 Scottslawn Road, Marysville, Ohio 43041) comprising spaghnum peat moss, vermiculite, wetting agent and starter nutrients were treated with postemergence applications of test chemicals formulated in the same manner. Plants ranged in height from 2 to 18 cm for postemergence treatments (1- to 4-leaf stage). Treated plants and controls were maintained in a greenhouse for 14 to 21 d, after which time all species were compared to controls and visually evaluated. Plant response ratings, summarized in Table E, are based on a scale of 0 to 100 where 0 is no effect and 100 is complete control. A dash (-) response means no test result.

[7] = tested on: surinam grass (Brachiaria decumbens); assay: Test E pre-/postemergence greenhouse test
Text: as §5, §6

[8] = tested on: ragweed (common ragweed, Ambrosia elatior); assay: Test E pre-/postemergence greenhouse test
Text: as §5, §6

[9] = tested on: horseweed (Conyza canadensis); assay: Test E pre-/postemergence greenhouse test
Text: as §5, §6

[10] = tested on: crabgrass, large (Digitaria sanguinalis); assay: Test E pre-/postemergence greenhouse test
Text: as §5, §6

[11] = tested on: pigweed, palmer (Amaranthus palmeri); assay: Test E pre-/postemergence greenhouse test
Text: as §5, §6

Cc1cc(Cl)c2ccccc2c1-c1c(O)c(Cl)nn(C)c1=O [Cpd. No. 65]
Plant response rating (0 to 100 scale) ([1]; 64 g ai/ha): 100
Plant response rating (0 to 100 scale) ([1]; 125 g ai/ha): 100
Plant response rating (0 to 100 scale) ([2]; 64 g ai/ha): 0
Plant response rating (0 to 100 scale) ([2]; 125 g ai/ha): 15
Plant response rating (0 to 100 scale) ([3]; 64 g ai/ha): 10
Plant response rating (0 to 100 scale) ([3]; 125 g ai/ha): 60
Plant response rating (0 to 100 scale) ([4]; 64 g ai/ha): 0
Plant response rating (0 to 100 scale) ([4]; 125 g ai/ha): 0
Plant response rating (0 to 100 scale) ([5]; 64 g ai/ha): 20
Plant response rating (0 to 100 scale) ([5]; 125 g ai/ha): 55
Plant response rating, Panicum, Fall ([6]; Postemergence, 16 g ai/ha): 80
Plant response rating, Panicum, Fall ([6]; Postemergence, 31 g ai/ha): 88
Plant response rating, Panicum, Fall ([6]; Postemergence, 62 g ai/ha): 93
Plant response rating, Panicum, Fall ([6]; Postemergence, 125 g ai/ha): 93
Plant response rating, Panicum, Fall ([6]; Preemergence, 16 g ai/ha): 75
Plant response rating, Panicum, Fall ([6]; Preemergence, 31 g ai/ha): 99
Plant response rating, Panicum, Fall ([6]; Preemergence, 62 g ai/ha): 100
Plant response rating, Panicum, Fall ([6]; Preemergence, 125 g ai/ha): 99
Plant response rating, Surinam Grass ([7]; Postemergence, 16 g ai/ha): 73
Plant response rating, Surinam Grass ([7]; Postemergence, 31 g ai/ha): 78
Plant response rating, Surinam Grass ([7]; Postemergence, 62 g ai/ha): 85
Plant response rating, Surinam Grass ([7]; Postemergence, 125 g ai/ha): 93
Plant response rating, Surinam Grass ([7]; Preemergence, 16 g ai/ha): 8
Plant response rating, Surinam Grass ([7]; Preemergence, 31 g ai/ha): 92
Plant response rating, Surinam Grass ([7]; Preemergence, 62 g ai/ha): 85
Plant response rating, Surinam Grass ([7]; Preemergence, 125 g ai/ha): 100
Plant response rating, Ragweed ([8]; Postemergence, 16 g ai/ha): 95
Plant response rating, Ragweed ([8]; Postemergence, 31 g ai/ha): 93
Plant response rating, Ragweed ([8]; Postemergence, 62 g ai/ha): 95
Plant response rating, Ragweed ([8]; Postemergence, 125 g ai/ha): 93
Plant response rating, Ragweed ([8]; Preemergence, 16 g ai/ha): 75
Plant response rating, Ragweed ([8]; Preemergence, 31 g ai/ha): 99
Plant response rating, Ragweed ([8]; Preemergence, 62 g ai/ha): 100
Plant response rating, Ragweed ([8]; Preemergence, 125 g ai/ha): 100
Plant response rating, Horseweed ([9]; Postemergence, 16 g ai/ha): 65
Plant response rating, Horseweed ([9]; Postemergence, 31 g ai/ha): 75
Plant response rating, Horseweed ([9]; Postemergence, 62 g ai/ha): 85
Plant response rating, Horseweed ([9]; Postemergence, 125 g ai/ha): 85
Plant response rating, Horseweed ([9]; Preemergence, 16 g ai/ha): 100
Plant response rating, Horseweed ([9]; Preemergence, 31 g ai/ha): 100
Plant response rating, Horseweed ([9]; Preemergence, 62 g ai/ha): 100
Plant response rating, Horseweed ([9]; Preemergence, 125 g ai/ha): 100
Plant response rating, Crabgrass, Large ([10]; Postemergence, 16 g ai/ha): 10
Plant response rating, Crabgrass, Large ([10]; Postemergence, 31 g ai/ha): 13
Plant response rating, Crabgrass, Large ([10]; Postemergence, 62 g ai/ha): 30
Plant response rating, Crabgrass, Large ([10]; Postemergence, 125 g ai/ha): 35
Plant response rating, Crabgrass, Large ([10]; Preemergence, 16 g ai/ha): 45
Plant response rating, Crabgrass, Large ([10]; Preemergence, 31 g ai/ha): 18
Plant response rating, Crabgrass, Large ([10]; Preemergence, 62 g ai/ha): 38
Plant response rating, Crabgrass, Large ([10]; Preemergence, 125 g ai/ha): 48
Plant response rating, Pigweed, Palmer ([11]; Postemergence, 16 g ai/ha): 35
Plant response rating, Pigweed, Palmer ([11]; Postemergence, 31 g ai/ha): 43
Plant response rating, Pigweed, Palmer ([11]; Postemergence, 62 g ai/ha): 68
Plant response rating, Pigweed, Palmer ([11]; Postemergence, 125 g ai/ha): 55
Plant response rating, Pigweed, Palmer ([11]; Preemergence, 16 g ai/ha): 40
Plant response rating, Pigweed, Palmer ([11]; Preemergence, 31 g ai/ha): 58
Plant response rating, Pigweed, Palmer ([11]; Preemergence, 62 g ai/ha): 80
Plant response rating, Pigweed, Palmer ([11]; Preemergence, 125 g ai/ha): 90
